Tests used:
[1] = molecular target: GST-tagged human ROCK2 catalytic domain 1-553 (Homo sapiens (Human), UniProt O75116); assay: Inhibition of Rho-associated protein kinase isoform 2 (LANCE Ultra ULight-CREBtide FRET kinase assay); assay type: biochemical; conditions: for IC50: 30 μM was the highest concentration analyzed; for Selectivity for ROCK2 over ROCK1 (IC50 ROCK1 / IC50 ROCK2): selectivity ROCK2 vs ROCK1
Method in brief: (§1)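 Baculovirus-expressed kinase phosphorylated ULight-CREBtide for 90 min at room temperature before the reaction was stopped with 10 mM EDTA. Phospho-substrate was detected by TR-FRET with 1 nM Europium-anti-phospho-CREB (Ser133) antibody after 60 min at room temperature.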

[2] = molecular target: GST-tagged human ROCK1 catalytic domain 1-477 (Homo sapiens (Human), UniProt Q13464); assay: Inhibition of Rho-associated protein kinase isoform 1 (LANCE Ultra ULight-CREBtide FRET kinase assay); assay type: biochemical; conditions: 30 μM was the highest concentration analyzed
Method in brief: as §1

GST-tagged human ROCK2 catalytic domain 1-553, sequence (O75116 1-553): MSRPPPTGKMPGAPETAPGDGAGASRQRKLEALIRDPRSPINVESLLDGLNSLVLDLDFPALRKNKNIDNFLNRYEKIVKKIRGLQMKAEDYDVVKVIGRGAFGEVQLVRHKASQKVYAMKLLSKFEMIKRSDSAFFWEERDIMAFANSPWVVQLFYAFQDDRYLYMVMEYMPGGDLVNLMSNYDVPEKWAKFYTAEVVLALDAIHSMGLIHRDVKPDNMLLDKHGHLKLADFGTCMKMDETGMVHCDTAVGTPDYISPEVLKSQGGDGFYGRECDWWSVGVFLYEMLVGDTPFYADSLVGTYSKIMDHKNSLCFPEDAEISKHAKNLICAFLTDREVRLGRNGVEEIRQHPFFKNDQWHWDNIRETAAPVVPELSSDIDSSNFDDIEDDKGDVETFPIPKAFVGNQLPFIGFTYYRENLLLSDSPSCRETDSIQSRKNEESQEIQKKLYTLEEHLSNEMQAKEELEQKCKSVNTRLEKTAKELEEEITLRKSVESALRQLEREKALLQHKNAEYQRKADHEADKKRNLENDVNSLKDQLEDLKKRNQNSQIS
GST-tagged human ROCK1 catalytic domain 1-477, sequence (Q13464 1-477): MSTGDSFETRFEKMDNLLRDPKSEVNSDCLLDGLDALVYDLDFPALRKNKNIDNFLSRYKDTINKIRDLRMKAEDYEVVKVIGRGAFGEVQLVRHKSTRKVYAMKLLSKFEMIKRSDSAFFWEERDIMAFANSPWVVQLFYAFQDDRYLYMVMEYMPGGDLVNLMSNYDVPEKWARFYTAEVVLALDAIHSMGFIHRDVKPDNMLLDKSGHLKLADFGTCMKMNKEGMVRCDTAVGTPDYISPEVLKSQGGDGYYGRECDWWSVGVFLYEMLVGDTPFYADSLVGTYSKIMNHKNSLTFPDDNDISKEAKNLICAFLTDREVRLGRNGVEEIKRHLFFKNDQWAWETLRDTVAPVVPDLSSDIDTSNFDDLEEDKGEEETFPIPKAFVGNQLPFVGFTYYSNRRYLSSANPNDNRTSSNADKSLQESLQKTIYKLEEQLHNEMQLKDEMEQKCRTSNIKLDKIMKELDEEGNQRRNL

Row | Structure (SMILES) | IC50 [1] | Selectivity for ROCK2 over ROCK1 (IC50 ROCK1 / IC50 ROCK2) [1] | IC50 [2]
1 | CC(=O)Nc1cc(CN2CCN(C)CC2)cc(-c2nnc(Nc3ccc4[nH]ncc4c3Cl)s2)c1.O=C(O)C(F)(F)F [Example 48B] | < 1 µM | >50 | 1 to 15 µM
2 | CC(=O)Nc1cc(CN(C)C)cc(-c2nnc(Nc3ccc4[nH]ncc4c3Cl)s2)c1.O=C(O)C(F)(F)F [Example 48C] | < 1 µM | >5 | 1 to 15 µM
3 | CC(=O)Nc1cc(CN2CCOCC2)cc(-c2nnc(Nc3ccc4[nH]ncc4c3Cl)s2)c1.O=C(O)C(F)(F)F [Example 48D] | < 1 µM | >5 | 1 to 15 µM
4 | CC(=O)Nc1ccc(S(C)(=O)=O)c(-c2nnc(Nc3ccc4[nH]ncc4c3Cl)s2)c1 [Example 48E] | 1 to 15 µM | <5 | 15 to 30 µM
5 | CSc1ccc(NC(C)=O)cc1-c1nnc(Nc2ccc3[nH]ncc3c2Cl)s1 [Example 48F] | < 1 µM | >5 | < 1 µM
6 | CC(=O)Nc1cc(CO)cc(-c2nnc(Nc3ccc4[nH]ncc4c3Cl)s2)c1 [Example 48H] | < 1 µM | >50 | < 1 µM
7 | CC(=O)Nc1ccc(C)c(-c2nnc(Nc3ccc4[nH]ncc4c3Cl)s2)c1.O=C(O)C(F)(F)F [Example 48I] | < 1 µM | >5 | < 1 µM
8 | COc1ccc(NC(C)=O)cc1-c1nnc(Nc2ccc3[nH]ncc3c2Cl)s1 [Example 48J] | < 1 µM | >5 | < 1 µM
9 | CC(=O)Nc1cc(-c2nnc(Nc3ccc4[nH]ncc4c3Cl)s2)cc(C(F)(F)F)c1 [Example 48K] | < 1 µM | >100 | > 30 µM
10 | CC(=O)Nc1cc(-c2nnc(Nc3ccc4[nH]ncc4c3Cl)s2)ccc1CN(C)C [Example 48L] | < 1 µM | >5 | 1 to 15 µM
11 | O=C(Nc1cc(-c2nnc(Nc3ccc4[nH]ncc4c3Cl)s2)ccc1C(F)(F)F)c1cnn(CCO)c1 [Example 48M] | < 1 µM | >5 | < 1 µM
12 | Cn1cc(C(=O)Nc2cc(-c3nnc(Nc4ccc5[nH]ncc5c4Cl)s3)ccc2C(F)(F)F)cn1 [Example 48N] | < 1 µM | >100 | > 30 µM
13 | CC(=O)Nc1cc(-c2nnc(Nc3ccc4[nH]ncc4c3Cl)s2)ccc1C(F)(F)F [Example 48O] | < 1 µM | >100 | > 30 µM
14 | CC(=O)Nc1cc(-c2nnc(Nc3ccc4[nH]ncc4c3Cl)s2)ccc1-c1ncco1 [Example 48P] | < 1 µM | >100 | > 30 µM
15 | CC(=O)Nc1cc(C(=O)N2CCC(C(=O)O)CC2)cc(-c2nnc(Nc3ccc4[nH]ncc4c3Cl)s2)c1 [Example 48Q] | < 1 µM | >5 | 1 to 15 µM
16 | Cn1cc(C(=O)Nc2cc(CC(=O)O)cc(-c3nnc(Nc4ccc5[nH]ncc5c4Cl)s3)c2)cn1 [Example 48R] | < 1 µM | >5 | < 1 µM
17 | CC(=O)Nc1cc(C(=O)NCC(O)CO)cc(-c2nnc(Nc3ccc4[nH]ncc4c3Cl)s2)c1 (stereo not drawn) [Example 48W] | < 1 µM | >5 | < 1 µM
18 | Cn1cc(C(=O)Nc2cc(-c3nnc(Nc4ccc5[nH]ncc5c4Cl)s3)ccc2Br)cn1 [Example 48Y] | < 1 µM | >100 | > 30 µM
19 | c1cc(-c2nnc(Nc3ccc4[nH]ncc4c3)s2)c2nccn2c1 [Example 49, 5-Imidazo[1,2-a]pyridin-8-yl-N-(1H-indazol-5-yl)-1,3,4-thiadiazol-2-amine 2,2,2-trifluoroacetic Acid Solvate] | < 1 µM | >5 | < 1 µM
20 | CCc1cn2cccc(-c3nnc(Nc4ccc5[nH]nc(C)c5c4)s3)c2n1 [Example 50A] | < 1 µM | >5 | 1 to 15 µM
21 | FC(F)(F)c1nc2c(-c3nnc(Nc4ccc5[nH]ncc5c4Cl)s3)cc(Br)cn2n1 [Example 50B] | < 1 µM | >100 | 1 to 15 µM
22 | Clc1c(Nc2nnc(-c3cccn4cc(C5CCCO5)nc34)s2)ccc2[nH]ncc12 (stereo not drawn) [Example 50C] | < 1 µM | >5 | < 1 µM
23 | O=C(O)c1ccc(-c2cn3cccc(-c4nnc(Nc5ccc6[nH]ncc6c5Cl)s4)c3n2)cc1 [Example 50E] | < 1 µM | >100 | > 30 µM
24 | CC(C)(O)c1ccc(-c2cn3cccc(-c4nnc(Nc5ccc6[nH]ncc6c5Cl)s4)c3n2)cc1 [Example 50F] | < 1 µM | >5 | < 1 µM

From US10112935B2, “Indazolyl thiadiazolamines and related compounds for inhibition of Rho-associated protein kinase and the treatment of disease” (Lycera Corporation, priority 2015, dated 2018)
